Some test systems named below: MDA-MB-435; BT-549; RXF 393; U-251; HOP-92; K562; SR; A549; OVCAR-4; SK-MEL-5; ACHN; SNB-19; UACC-257; SN12C; NCI-H226; M14; SF-268; SW-620; HCT-15; Hs-578T.
Assay in all cases: inhibition of tumour cell growth, NCI panel, 48 h

The text below walks through data of ChEMBL document CHEMBL1201862, “PubChem BioAssay data set” (2004).

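These data come from cells grown in 96-well plates and exposed to compound for 48 hours at five concentrations. GI50 marks 50% less growth.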 Calls of active or inactive are those of the source. No stated cut-off is given here; in the data, active = GI50 up to about 1.1 µM and inactive = higher. A value given as a limit tells only on which side of the number the result lay.

As for `CC(=O)CC[N+](C)(C)C`, the GI50 with MDA-MB-435 was 37.8 µM (inactive); in the test with BT-549 it was 35 µM (inactive); with RXF 393, 12.9 µM (inactive); in the test on U-251, 34.6 µM (inactive); with HOP-92, 10.7 µM (inactive); in the test with K562 it was 3.21 µM (inactive). Moreover, the GI50 in the test on SR was 7.85 µM (inactive); in the test with A549 it was 83.4 µM (inactive); in the test with OVCAR-4, 14.8 µM (inactive); in the test on SK-MEL-5, 30.3 µM (inactive); with ACHN it was 17 µM (inactive); with SNB-19, 22.7 µM (inactive). Further, the GI50 was 25.8 µM (inactive) in the test on UACC-257; 27.7 µM (inactive) with SN12C; 53 µM (inactive) in the test with NCI-H226; 23 µM (inactive) in the test with M14; 44.3 µM (inactive) with SF-268; 4.06 µM (inactive) in the test on SW-620. Besides, the values for the GI50 with HCT-15 and in the test with Hs-578T were 22.7 µM and 12.6 µM (inactive), respectively.
Consider `CCOC(=O)c1c(Br)c(-c2ccc(OC)cc2)c(Br)n1C`, for which the GI50 in the test on MDA-MB-435 is 2.37 µM (inactive); in the test on BT-549, 22.4 µM (inactive); in the test on RXF 393, 17.3 µM (inactive); in the test with U-251 it was 33.2 µM (inactive); in the test with HOP-92 it was 8.17 µM (inactive); in the test with K562, 3.61 µM (inactive). Further, the GI50 in the test on SR is 2.23 µM (inactive); in the test with A549 it was 21.3 µM (inactive); with OVCAR-4, 47.1 µM (inactive); in the test on SK-MEL-5, 10.6 µM (inactive); in the test with ACHN, 29.6 µM (inactive); in the test with SNB-19, 34.9 µM (inactive). The GI50 in the test on UACC-257 was 23.2 µM (inactive); in the test on SN12C, 12.9 µM (inactive); with NCI-H226 it was 22.2 µM (inactive); with M14 it was 26.4 µM (inactive); in the test with SF-268, 55.5 µM (inactive); in the test with SW-620 it was 9.46 µM (inactive). Further, the GI50 with HCT-15 is 8.61 µM; in the test on Hs-578T, 11.6 µM (inactive).
On to `N#CC1=C(S)N(C2OC(CO)C(O)C(O)C2O)C(c2ccccc2)=CC1c1ccccc1` (stereo not given), for which the GI50 in the test on MDA-MB-435 was 39.9 µM (inactive); with BT-549, 55.2 µM (inactive); in the test with RXF 393, 25.2 µM (inactive); in the test with U-251, 43 µM (inactive); in the test on HOP-92, 31.8 µM (inactive); in the test on K562 it was 30.1 µM (inactive). The GI50 was 35 µM (inactive) in the test with SR; > 100 µM (inactive) in the test with A549; 75.9 µM (inactive) in the test with OVCAR-4; 19.8 µM (inactive) in the test on SK-MEL-5; 62.1 µM (inactive) in the test on ACHN; 64.6 µM (inactive) in the test with SNB-19. Also, the GI50 in the test on UACC-257 was 51.6 µM (inactive); in the test with SN12C it was 72.4 µM (inactive); in the test with NCI-H226, 36.2 µM (inactive); with M14 it was 37.5 µM (inactive); with SF-268, 56.5 µM (inactive); in the test with SW-620, 5.66 µM (inactive). The GI50 in the test with HCT-15 was 18.8 µM; with Hs-578T, 41.5 µM (inactive).
Consider `CN(C)c1ccc(-c2nc(-c3cc4c(ccc5ccccc54)oc3=O)cs2)cc1`, for which the GI50 with MDA-MB-435, with BT-549, with RXF 393, with U-251, with HOP-92 and in the test on K562 was > 100 µM (inactive) each time. Moreover, the GI50 in the test with SR, in the test on A549, in the test with OVCAR-4, with SK-MEL-5, in the test with ACHN and in the test on SNB-19 was > 100 µM (inactive) in each case. In addition, the GI50 with UACC-257, in the test with SN12C, with NCI-H226, in the test on M14, with SF-268 and with SW-620 was > 100 µM (inactive) each time. Further, the GI50 was more than 100 µM in the test on HCT-15 and > 100 µM (inactive) in the test on Hs-578T.
With `O=S(=O)(CCC[C@H]1[C@@H](CCOCc2ccccc2)C2CCCN1O2)c1ccccc1` (stereo not given in full), the GI50 in the test on MDA-MB-435 is > 100 µM (inactive); in the test on BT-549, 41 µM (inactive); in the test with RXF 393, > 100 µM (inactive); in the test with U-251 it was > 100 µM (inactive); in the test with HOP-92, > 100 µM (inactive); with K562, 63.2 µM (inactive). In addition, the GI50 was > 100 µM (inactive) in the test with SR; > 100 µM (inactive) in the test on A549; > 100 µM (inactive) with OVCAR-4; 43.3 µM (inactive) in the test with SK-MEL-5; > 100 µM (inactive) in the test on ACHN; > 100 µM (inactive) in the test with SNB-19. Further, the GI50 in the test with UACC-257, in the test with SN12C, in the test with NCI-H226, with M14, with SF-268 and with SW-620 was > 100 µM (inactive) in each case. The results for the GI50 with HCT-15 and in the test on Hs-578T were more than 100 µM and > 100 µM (inactive), respectively.
With `C1CCN2CC34CC(CC5CCCN(C6CCCC3N6)C54)C2C1` (stereo not given), the GI50 is > 100 µM (inactive) in the test with MDA-MB-435; > 100 µM (inactive) in the test with BT-549; 78.9 µM (inactive) in the test with RXF 393; > 100 µM (inactive) in the test on U-251; > 100 µM (inactive) in the test on HOP-92; > 100 µM (inactive) in the test with K562. The GI50 with SR, with A549, in the test with OVCAR-4, with SK-MEL-5, in the test on ACHN and in the test with SNB-19 was > 100 µM (inactive) in each case. Further, the GI50 with UACC-257, with SN12C, in the test on NCI-H226, in the test with M14, in the test with SF-268 and with SW-620 was > 100 µM (inactive) in each case. The GI50 was more than 100 µM in the test with HCT-15 and > 100 µM (inactive) in the test on Hs-578T.
With `COc1ccc([C@H]2CC(=O)C[C@H](c3ccc(OC)cc3)C23C(=O)c2ccccc2C3=O)cc1`, the GI50 is 1.95 µM (inactive) in the test with MDA-MB-435; 5.65 µM (inactive) in the test on BT-549; 2.92 µM (inactive) with RXF 393; 4.24 µM (inactive) with U-251; 5.74 µM (inactive) with HOP-92; 3.52 µM (inactive) in the test with K562. Moreover, the GI50 in the test on SR was 3.28 µM (inactive); in the test with A549 it was 5.97 µM (inactive); in the test with OVCAR-4, 9.57 µM (inactive); in the test with SK-MEL-5, 3.46 µM (inactive); with ACHN it was 16.6 µM (inactive); in the test with SNB-19 it was 5.35 µM (inactive). The GI50 in the test on UACC-257 is 2.29 µM (inactive); in the test on SN12C, 7.57 µM (inactive); in the test on NCI-H226 it was 6.11 µM (inactive); with M14, 6.34 µM (inactive); with SF-268, 6.76 µM (inactive); with SW-620, 3.53 µM (inactive). Moreover, the GI50 with HCT-15 is 4.02 µM; in the test on Hs-578T, 4.78 µM (inactive).
